This note sets out measurements from patent US20150274719A1, “AMINO-SUBSTITUTED IMIDAZO[1,2-A]PYRIDINECARBOXAMIDES AND THEIR USE” (BAYER PHARMA AKTIENGESELLSCHAFT, priority 2012, published 2015).

The assay addresses T1, recombinant guanylate cyclase reporter cell line (Rattus norvegicus, UniProt P19686+P20595).
T1 construct: expressed in transfected cells; host or cells: recombinant reporter cell line
T1 sequence (P19686 1-690): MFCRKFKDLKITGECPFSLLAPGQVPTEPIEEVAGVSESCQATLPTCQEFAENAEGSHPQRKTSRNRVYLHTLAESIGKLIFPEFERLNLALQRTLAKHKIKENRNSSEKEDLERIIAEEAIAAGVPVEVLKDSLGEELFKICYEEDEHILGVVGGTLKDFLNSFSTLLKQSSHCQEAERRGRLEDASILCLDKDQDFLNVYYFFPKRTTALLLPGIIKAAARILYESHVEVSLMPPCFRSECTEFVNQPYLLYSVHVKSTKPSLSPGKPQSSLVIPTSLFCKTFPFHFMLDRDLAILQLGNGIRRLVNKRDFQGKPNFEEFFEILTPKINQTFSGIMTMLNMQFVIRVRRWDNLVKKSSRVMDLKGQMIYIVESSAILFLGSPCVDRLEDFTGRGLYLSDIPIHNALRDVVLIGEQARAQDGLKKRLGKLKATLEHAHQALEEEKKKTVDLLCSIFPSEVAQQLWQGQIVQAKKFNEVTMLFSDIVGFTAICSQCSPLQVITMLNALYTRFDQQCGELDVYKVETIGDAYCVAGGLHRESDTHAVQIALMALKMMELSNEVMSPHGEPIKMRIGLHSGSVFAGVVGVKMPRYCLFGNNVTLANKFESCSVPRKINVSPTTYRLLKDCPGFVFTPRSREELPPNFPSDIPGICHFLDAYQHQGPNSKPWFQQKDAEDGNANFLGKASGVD
T1 sequence (P20595 1-619): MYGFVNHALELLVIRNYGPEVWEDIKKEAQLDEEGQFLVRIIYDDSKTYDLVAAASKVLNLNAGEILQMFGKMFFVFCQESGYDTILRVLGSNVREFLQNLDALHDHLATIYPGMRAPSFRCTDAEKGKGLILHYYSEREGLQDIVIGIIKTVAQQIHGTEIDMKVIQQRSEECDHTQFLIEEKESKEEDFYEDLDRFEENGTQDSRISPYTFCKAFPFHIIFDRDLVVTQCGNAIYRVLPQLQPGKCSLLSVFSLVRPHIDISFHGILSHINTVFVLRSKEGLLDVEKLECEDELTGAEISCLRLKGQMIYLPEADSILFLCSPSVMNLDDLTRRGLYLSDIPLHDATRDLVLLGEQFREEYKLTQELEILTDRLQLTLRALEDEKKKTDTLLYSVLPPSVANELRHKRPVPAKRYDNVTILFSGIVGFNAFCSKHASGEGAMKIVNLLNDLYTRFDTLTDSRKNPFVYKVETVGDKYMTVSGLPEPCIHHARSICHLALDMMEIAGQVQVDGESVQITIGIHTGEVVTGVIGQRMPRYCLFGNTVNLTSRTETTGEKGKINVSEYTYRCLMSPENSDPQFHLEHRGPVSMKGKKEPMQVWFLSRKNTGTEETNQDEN
Briefly: Action on recombinant guanylate cyclase reporter cell line. Particulars: in some cases mean values from individual determinations. The format is cell-based. An outline of the steps: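 Read-out: MEC (minimal effective concentration) in cells. Reporter line carries recombinant sGC. Some values are averages of single runs.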
With `Cc1nc2c(OCc3c(F)cccc3F)cccn2c1C(=O)NCCNC(C)C` [Example 130, 8-[(2,6-difluorobenzyl)oxy]-N-[2-(isopropylamino)ethyl]-2-methylimidazo[1,2-a]-pyridine-3-carboxamide], the “MEC (minimal effective concentration)” value came to 1.00 µM.

Consider `Cc1nc2c(OCc3c(F)cccc3F)cccn2c1C(=O)NCCN1CCS(=O)(=O)CC1` [Example 131, 8-[(2,6-difluorobenzyl)oxy]-N-[2-(1,1-dioxidothiomorpholin-4-yl)ethyl]-2-methylimidazo[1,2-a]pyridine-3-carboxamide], for which the “MEC (minimal effective concentration)” value is 3.00 µM. Turning to `Cc1nc2c(OCc3c(F)cccc3F)cccn2c1C(=O)NCCN1CCN(C)CC1` [Example 133, 8-[(2,6-difluorobenzyl)oxy]-2-methyl-N-[2-(4-methylpiperazin-1-yl)ethyl]imidazo[1,2-a]-pyridine-3-carboxamide], the “MEC (minimal effective concentration)” value came out at 3.00 µM. Under `Cc1cc(OCc2c(F)cccc2F)c2nc(C)c(C(=O)NCCN3CCOCC3)n2c1` [Example 136, 8-[(2,6-difluorobenzyl)oxy]-2,6-dimethyl-N-[2-(morpholin-4-yl)ethyl]imidazo[1,2-a]pyridine-3-carboxamide] stands 0.10 µM; under `Cc1cc(OCc2c(F)cccc2F)c2nc(C)c(C(=O)NCCN3CCN(C)CC3)n2c1` [Example 137, 8-[(2,6-difluorobenzyl)oxy]-2,6-dimethyl-N-[2-(4-methylpiperazin-1-yl)ethyl]imidazo[1,2-a]-pyridine-3-carboxamide], 1.00 µM.

Turning to `Cc1cc(OCc2c(F)cccc2F)c2nc(C)c(C(=O)NCCN3CCN(C(C)C)CC3)n2c1` [Example 139, 8-[(2,6-difluorobenzyl)oxy]-N-[2-(4-isopropylpiperazin-1-yl)ethyl]-2,6-dimethylimidazo[1,2-a]pyridine-3-carboxamide], the “MEC (minimal effective concentration)” value worked out at 1.00 µM.

Take `Cc1nc2c(OCc3c(F)cccc3F)cc(F)cn2c1C(=O)NCC(C)(C)N` [Example 140, N-(2-Amino-2-methylpropyl)-8-[(2,6-difluorobenzyl)oxy]-6-fluoro-2-methylimidazo[1,2-a]-pyridine-3-carboxamide]: the “MEC (minimal effective concentration)” value is 1.00 µM. As to `Cc1nc2c(OCc3c(F)cccc3F)cccn2c1C(=O)NC(C)(C)C(C)(C)N` [Example 141, N-(3-Amino-2,3-dimethylbutan-2-yl)-8-[(2,6-difluorobenzyl)oxy]-2-methylimidazo[1,2-a]pyridine-3-carboxamide], the “MEC (minimal effective concentration)” value came out at 3.00 µM.

Consider `Cc1nc2c(OCc3c(F)cccc3F)cccn2c1C(=O)NCCN1CCC(F)(F)C1` [Example 143, 8-[(2,6-difluorobenzyl)oxy]-N-[2-(3,3-difluoropyrrolidin-1-yl)ethyl]-2-methylimidazo[1,2-a]pyridine-3-carboxamide], for which the “MEC (minimal effective concentration)” value stood at 0.30 µM. The result for `COCCNCCNC(=O)c1c(C)nc2c(OCc3c(F)cccc3F)cccn12` [Example 144, 8-[(2,6-difluorobenzyl)oxy]-N-{2-[(2-methoxyethyl)amino]ethyl}-2-methylimidazo[1,2-a]pyridine-3-carboxamide] reads 3.00 µM; that for `Cc1nc2c(OCc3c(F)cccc3F)cccn2c1C(=O)NCC(C)(C)N(C)C` [Example 145, 8-[(2,6-difluorobenzyl)oxy]-N-[2-(dimethylamino)-2-methylpropyl]-2-methylimidazo[1,2-a]pyridine-3-carboxamide], 3.00 µM. Take `Cc1nc2c(OCc3c(F)cccc3F)cccn2c1C(=O)NCCN(CC(F)F)C1CC1` [Example 146, N-{2-[cyclopropyl(2,2-difluoroethyl)amino]ethyl}-8-[(2,6-difluorobenzyl)oxy]-2-methylimidazo[1,2-a]-pyridine-3-carboxamide]: the “MEC (minimal effective concentration)” value was 1.00 µM.

On to `Cc1nc2c(OCc3c(F)cccc3F)cc(Cl)cn2c1C(=O)NCC(C)(C)N1CCCC1` [Example 148, 6-chloro-8-[(2,6-difluorobenzyl)oxy]-2-methyl-N-[2-methyl-2-(pyrrolidin-1-yl)-propyl]imidazo[1,2-a]pyridine-3-carboxamide], for which the “MEC (minimal effective concentration)” value came to 1.00 µM. Under `Cc1nc2c(OCc3c(F)cccc3F)cc(Cl)cn2c1C(=O)NCCNC(C)C` [Example 149, 6-chloro-8-[(2,6-difluorobenzyl)oxy]-N-[2-(isopropylamino)ethyl]-2-methylimidazo[1,2-a]-pyridine-3-carboxamide] stands 1.00 µM; under `Cc1nc2c(OCc3c(F)cccc3F)cc(Cl)cn2c1C(=O)NCCN(CC(F)F)C1CC1` [Example 150, 6-chloro-N-{2-[cyclopropyl(2,2-difluoroethyl)-amino]ethyl}-8-[(2,6-difluorobenzyl)oxy]-2-methylimidazo[1,2-a]pyridine-3-carboxamide], 0.10 µM.

For `Cc1nc2c(OCc3c(F)cccc3F)cc(Cl)cn2c1C(=O)NCCN1CCC(F)(F)CC1` [Example 151, 6-chloro-8-[(2,6-difluorobenzyl)oxy]-N-[2-(4,4-difluoropiperidin-1-yl)ethyl]-2-methylimidazo[1,2-a]pyridine-3-carboxamide], the “MEC (minimal effective concentration)” value turned out to be 0.10 µM. Under `Cc1nc2c(OCc3c(F)cccc3F)cc(Cl)cn2c1C(=O)NCCN1CCN(C(C)C)CC1` [Example 152, 6-chloro-8-[(2,6-difluorobenzyl)oxy]-N-[2-(4-isopropylpiperazin-1-yl)ethyl]-2-methyl-imidazo[1,2-a]pyridine-3-carboxamide] stands 1.00 µM. For the compound `COCCNCCNC(=O)c1c(C)nc2c(OCc3c(F)cccc3F)cc(Cl)cn12` [Example 153, 6-chloro-8-[(2,6-difluorobenzyl)oxy]-N-{2-[(2-methoxyethyl)amino]ethyl}-2-methylimidazo[1,2-a]pyridine-3-carboxamide], the “MEC (minimal effective concentration)” value turned out to be 1.00 µM. The result for `Cc1nc2c(OCc3c(F)cccc3F)cc(Cl)cn2c1C(=O)NCCN1CCN(C)CC1` [Example 154, 6-chloro-8-[(2,6-difluorobenzyl)oxy]-2-methyl-N-[2-(4-methylpiperazin-1-yl)ethyl]imidazo[1,2-a]pyridine-3-carboxamide] reads 1.00 µM. The result for `Cc1nc2c(OCc3c(F)cccc3F)cc(Cl)cn2c1C(=O)NCCN1CC(N2CCCC2)C1` [Example 156, 6-chloro-8-[(2,6-difluorobenzyl)oxy]-2-methyl-N-{2-[3-(pyrrolidin-1-yl)azetidin-1-yl]ethyl}-imidazo[1,2-a]pyridine-3-carboxamide] reads 3.00 µM; that for `Cc1nc2c(OCc3c(F)cccc3F)cc(Cl)cn2c1C(=O)NCCN1C[C@@H](C)O[C@@H](C)C1` [Example 158, 6-chloro-8-[(2,6-difluorobenzyl)oxy]-N-{2-[(2R,6S)-2,6-dimethylmorpholin-4-yl]ethyl}-2-methylimidazo[1,2-a]pyridine-3-carboxamide], 0.30 µM; that for `Cc1cc(OCc2c(F)cccc2F)c2nc(C)c(C(=O)NC3CCCC(N)C3)n2c1` (stereo not shown) [Example 160, N-(3-aminocyclohexyl)-8-[(2,6-difluorobenzyl)oxy]-2,6-dimethylimidazo[1,2-a]-pyridine-3-carboxamide], 1.00 µM.
